Source: paper PMC8829872 (Cancer chemotherapy and pharmacology, 2022)
Where two headings read alike, the source gives them in different places.

Assays:
[1] = Extensive tissue distribution study in CT26 tumor-bearing mice; format: in vivo, Balb/c mice; settings: Balb/c, mouse, 75 mg/kg PO; for Cmax: read-out: Cmax; for Tmax: read-out: Tmax (converted); for AUC(0-t): 0-1440 min, read-out: AUC0-t (converted)
Method: Mice were injected subcutaneously on the right flank with 1x10^6 CT26 cells, a murine colorectal carcinoma cell line from BALB/c mice,obtained from ATCC (Manassas, VA). Cells were cultured in RPMI-1640 medium with L-glutamine (BioWhittaker Inc., Walkersville, MD), containing 10% heat-inactivated fetal bovine serum and 100 units of penicillin/mL and 100 μg/mL of streptomycin (Biofluids, BioSource, Rockville, MD) in an incubator with 95% air, 5% CO2, and 95% humidity at 37 °C. Cells were verified and checked for mycoplasm by IDEXX BioAnalytics (Westbrook, ME). Implantation and tumor growth were monitored twice weekly with a digital caliper. When tumors were approximately 200 mm^3, mice were stratified into time groups (N=3) primarily using body weight and secondarily using tumor size. Mice were administered 75 mg/kg PO through oral gavage. […] Bone marrow was obtained by flushing both femurs from each mouse with PBS, followed by centrifugation at 12,000 x g and removal of the supernatant. Protein analysis of the resuspended pellet was conducted using the Bio-Rad protein assay following the manufacturer’s instructions with bovine serum albumin as the standard. Blood was processed to obtain plasma and urine and feces were collected as described above.
For tissue and tumor analysis, samples were homogenized with 3 parts PBS (v/g) and further diluted with control plasma and concentrations determined from calibration curves prepared in control plasma.

[2] = 1 h after 25 mg/kg IP; cited from earlier work
[3] = generally reported, cited from earlier work
in vivo = settings: Balb/c, mouse
Method: The vehicle for all groups was 10% DMSO, 40% propylene glycol, and 50% dH2O. […] Mice were euthanized by CO2 inhalation and the following tissues collected: blood, liver, kidney, lung, skeletal muscle, and brain.
Duplicate standard curves with calibrators consisting of 0.3, 1, 3, 10, 30 100, 300, and 1,000 ng/mL, in addition to blank plasma, were prepared fresh on days of analysis using control Balb/c mouse plasma (Innovative Research, Novi, MI). QCs were prepared in bulk and stored at −80 °C, with concentrations of 0.8 (QCL), 20 (QCM), and 800 ng/mL (QCH). […] The injection volume was 3 μL. […] Curve fitting was accomplished through linear regression with 1/y^2 weighting. Semi-quantitation of metabolites was accomplished by reporting IS normalized metabolite response.
Noncompartmental (NC) PK was determined using GraphPad Prism (San Diego, CA) using the linear trapezoidal method and Bailer method of AUC determination for estimates of exposure in plasma, RBC, tumors, and tissues [24]. PK parameters or analysis requiring dose were adjusted for the actual dose as determined using measurements of dosing solution. Dose-normalized plasma exposures, Cmax and AUC, of PO treated groups of the dose linearity studies were compared using ANOVA tests to determine dose linearity.
Tissue partition coefficients (PTissue) and RBC partitioning (PRBC) were calculated using Eq. (1) and tested among PO treated groups using ANOVA tests.
The resulting concentrations were multiplied by the volume or weight to convert to a total amount and then divided by 3 to account for the number of mice per cage. These amounts were then divided by the average total amount of drug administered to calculate the percent excreted by urine and feces, see Eq. (2). Renal clearance (ClR) was calculated by dividing the excreted amount by the plasma AUC, see Eq. (3) [25].
When available, plasma metabolite data was used to determine semi-quantitative exposure as well as metabolic ratios, using Eq. (4). The MR among PO treated groups in the dose linearity studies were compared using ANOVA testing. Metabolite presence was also analyzed in urine and feces.

With `C[C@@H]1COCCN1c1cc(C2([S@](C)(=N)=O)CC2)nc(-c2cc[nH]c3nccc2-3)n1` [AZD6738] as the compound, how does the Cmax ([1]; Esophagus) read?
The Cmax was 115000 ng/mL.

And the Tmax ([1]; Esophagus)?
The Tmax was 5 min.

And the AUC(0-inf) ([1]; Fat)?
The AUC(0-inf) was 16300 ng·h/mL.

What about the AUC(0-t) ([1]; Fat) of the same compound?
The AUC(0-t) was 16300 ng·h/mL.

What about the Cmax ([1]; Fat) of the same compound?
Its Cmax is 9200 ng/mL.

What about the Tmax ([1]; Fat) of the same compound?
Its Tmax is 30 min.

What about the AUC(0-inf) ([1]; Heart) of the same compound?
Its AUC(0-inf) is 45600 ng·h/mL.

And the AUC(0-t) ([1]; Heart)?
Its AUC(0-t) is 45600 ng·h/mL.

And the Cmax ([1]; Heart)?
Its Cmax is 19400 ng/mL.

And the Tmax ([1]; Heart)?
The Tmax was 15 min.

What about the AUC(0-inf) ([1]; Liver) of the same compound?
Its AUC(0-inf) is 293000 ng·h/mL.

And the AUC(0-t) ([1]; Liver)?
Its AUC(0-t) is 293000 ng·h/mL.

What about the Cmax ([1]; Liver) of the same compound?
The Cmax was 114000 ng/mL.

And the Tmax ([1]; Liver)?
Its Tmax is 15 min.

And the AUC(0-inf) ([1]; Non-draining Lymph Node)?
The AUC(0-inf) was 38800 ng·h/mL.

And the AUC(0-t) ([1]; Non-draining Lymph Node)?
The AUC(0-t) was 38800 ng·h/mL.

What about the Cmax ([1]; Non-draining Lymph Node) of the same compound?
Its Cmax is 16100 ng/mL.

What about the Tmax ([1]; Non-draining Lymph Node) of the same compound?
Its Tmax is 15 min.

And the AUC(0-inf) ([1]; Small Intestine)?
Its AUC(0-inf) is 332000 ng·h/mL.

What about the AUC(0-t) ([1]; Small Intestine) of the same compound?
The AUC(0-t) was 331000 ng·h/mL.

And the Cmax ([1]; Small Intestine)?
The Cmax was 204000 ng/mL.

What about the Tmax ([1]; Small Intestine) of the same compound?
The Tmax was 15 min.

And the AUC(0-inf) ([1]; Spinal Cord)?
Its AUC(0-inf) is 2450 ng·h/mL.

What about the AUC(0-t) ([1]; Spinal Cord) of the same compound?
The AUC(0-t) was 2420 ng·h/mL.

What about the Cmax ([1]; Spinal Cord) of the same compound?
The Cmax was 1010 ng/mL.

And the Tmax ([1]; Spinal Cord)?
Its Tmax is 15 min.

What about the AUC(0-inf) ([1]; Spleen) of the same compound?
The AUC(0-inf) was 35200 ng·h/mL.

What about the AUC(0-t) ([1]; Spleen) of the same compound?
The AUC(0-t) was 35200 ng·h/mL.

And the Cmax ([1]; Spleen)?
Its Cmax is 14200 ng/mL.

And the Tmax ([1]; Spleen)?
Its Tmax is 15 min.

What about the AUC(0-inf) ([1]; Thymus) of the same compound?
The AUC(0-inf) was 25800 ng·h/mL.

What about the AUC(0-t) ([1]; Thymus) of the same compound?
Its AUC(0-t) is 25800 ng·h/mL.

What about the Cmax ([1]; Thymus) of the same compound?
The Cmax was 9630 ng/mL.

What about the Tmax ([1]; Thymus) of the same compound?
The Tmax was 5 min.

What about the brain concentration [2] of the same compound?
Its brain concentration is roughly 200 ng/mL.

And the “cell based IC50s” value [3]?
The value was “below 413 ng/mL”.

And the IC50 ([3]; read-out: cell based IC50s)?
The IC50 was less than 1000 nM.

And the half-life (in vivo)?
The half-life was 94.4 to 130 min.

What about the AUC(0-inf) (in vivo; iv, 10 mg/kg) of the same compound?
Its AUC(0-inf) is 5620 ng·h/mL.

And the CL renal (in vivo; iv, 10 mg/kg)?
Its CL renal is 0.661 mL/min/kg.

What about the Cmax (in vivo; iv, 10 mg/kg) of the same compound?
Its Cmax is 7040 ng/mL.

And the Tmax (in vivo; iv, 10 mg/kg)?
The Tmax was 5 min.

And the Vd (in vivo; iv, 10 mg/kg)?
Its Vd is 4.92 L/kg.

And the half-life (in vivo; iv, 10 mg/kg)?
The half-life was 98.6 min.

And the AUC(0-inf) (in vivo; po, 2 mg/kg)?
The AUC(0-inf) was 423 ng·h/mL.

And the CL renal (in vivo; po, 2 mg/kg)?
Its CL renal is 1.97 mL/min/kg.

What about the Cmax (in vivo; po, 2 mg/kg) of the same compound?
The Cmax was 160 ng/mL.

What about the Tmax (in vivo; po, 2 mg/kg) of the same compound?
The Tmax was 60 min.

And the bioavailability (in vivo; po, 2 mg/kg)?
The bioavailability was 45.7%.

What about the half-life (in vivo; po, 2 mg/kg) of the same compound?
Its half-life is 104 min.

What about the AUC(0-inf) (in vivo; po, 7.5 mg/kg) of the same compound?
Its AUC(0-inf) is 2400 ng·h/mL.

And the CL renal (in vivo; po, 7.5 mg/kg)?
Its CL renal is 1.88 mL/min/kg.

And the Cmax (in vivo; po, 7.5 mg/kg)?
Its Cmax is 1460 ng/mL.

What about the Tmax (in vivo; po, 7.5 mg/kg) of the same compound?
The Tmax was 15 min.

And the bioavailability (in vivo; po, 7.5 mg/kg)?
The bioavailability was 58.8%.

And the half-life (in vivo; po, 7.5 mg/kg)?
The half-life was 130 min.

What about the AUC(0-inf) (in vivo; po, 20 mg/kg) of the same compound?
The AUC(0-inf) was 9630 ng·h/mL.

What about the CL renal (in vivo; po, 20 mg/kg) of the same compound?
The CL renal was 1.53 mL/min/kg.

What about the Cmax (in vivo; po, 20 mg/kg) of the same compound?
Its Cmax is 4960 ng/mL.

And the Tmax (in vivo; po, 20 mg/kg)?
The Tmax was 15 min.

What about the bioavailability (in vivo; po, 20 mg/kg) of the same compound?
The bioavailability was 85.5%.

And the half-life (in vivo; po, 20 mg/kg)?
The half-life was 94.4 min.

What about the AUC(0-inf) (in vivo; po, 75 mg/kg) of the same compound?
The AUC(0-inf) was 41600 ng·h/mL.

And the CL renal (in vivo; po, 75 mg/kg)?
Its CL renal is 1.14 mL/min/kg.

And the Cmax (in vivo; po, 75 mg/kg)?
Its Cmax is 12000 ng/mL.

And the Tmax (in vivo; po, 75 mg/kg)?
Its Tmax is 15 min.

And the bioavailability (in vivo; po, 75 mg/kg)?
Its bioavailability is 95.2%.

And the half-life (in vivo; po, 75 mg/kg)?
Its half-life is 116 min.
